In patent US20040009569A1, “Kinase crystal structures and materials and methods for kinase activation” (priority 2001, published 2004):
Peptide text beside a SMILES is read from it.

Assays:
[1] = biological target: T1, His tagged pΔPH-PKB-ΔC R202D mutant (Homo sapiens, UniProt P31751, R202D); assay: PIFtide responsiveness of charge reversal mutant R202D; type: biochemical
T1 construct: pΔPH-PKB-ΔC (residues 146 to 460, phosphorylated in vitro on Thr-309); made in house; host or cells: HEK cells (transient expression), purified on Ni-NTA agarose
T1 sequence (P31751 146-460 R202D): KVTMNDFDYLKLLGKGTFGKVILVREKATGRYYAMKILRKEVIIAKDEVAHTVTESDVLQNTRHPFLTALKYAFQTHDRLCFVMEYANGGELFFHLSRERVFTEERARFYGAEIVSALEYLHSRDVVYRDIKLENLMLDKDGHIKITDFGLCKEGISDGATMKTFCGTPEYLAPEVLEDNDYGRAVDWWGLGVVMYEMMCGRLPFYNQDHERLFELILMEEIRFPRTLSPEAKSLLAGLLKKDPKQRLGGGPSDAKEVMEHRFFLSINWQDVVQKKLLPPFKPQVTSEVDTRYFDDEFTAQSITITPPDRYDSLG
Method: (§1) Mutations of conserved hydrophobic motif residues of PIFtide and PKB HM-peptide reduce or eliminate their potential to activate ΔPH-PKB-ΔC phosphorylated on Thr 309. Mutations of hydrophobic and electrostatic residues of the ΔPH-PKB-ΔC N-lobe hydrophobic groove reduces the stimulation of PKB activity by 130 μM PIFtide.
(§2) To test the notion that a hydrophobic groove is induced in PKB to engage the hydrophobic motif, and activate the kinase, a series of His tagged pΔPH-PKB-ΔC hydrophobic groove mutants were prepared and their responsiveness to PIFtide assessed. PKB mutants were transiently expressed in HEK cells, phosphorylated in vitro with PDK1, and purified using Ni-NTA agarose. […] Wild type PKB prepared using this procedure was stimulated ˜5-fold by 130 μM PIFtide (FIG. 6B).
Electrostatic interactions are important in defining high affinity PIFtide and PKB HM peptide associations with PKB (FIG. 5B), and form the basis for the increased affinity of the HM for the N-lobe and subsequent activation of PKB by Ser 474 phosphorylation. […] The equivalent residue of PKA, Arg 93, which is also conserved in PKC and PRK2, forms a water-mediated salt bridge to the carboxylate group of Glu 349 (FIG. 2).
PKB was assayed essentially as described by Andjelkovic et al. (1999) with 30 μM Crosstide (GRPRTSSAEG) as substrate except the protein kinase A inhibitor peptide was not added to the reactions. […]

PDK1 [2] = biological target: T2, PDK1 (Homo sapiens, UniProt O15530); details: cited from earlier work
T2 sequence (O15530 1-556): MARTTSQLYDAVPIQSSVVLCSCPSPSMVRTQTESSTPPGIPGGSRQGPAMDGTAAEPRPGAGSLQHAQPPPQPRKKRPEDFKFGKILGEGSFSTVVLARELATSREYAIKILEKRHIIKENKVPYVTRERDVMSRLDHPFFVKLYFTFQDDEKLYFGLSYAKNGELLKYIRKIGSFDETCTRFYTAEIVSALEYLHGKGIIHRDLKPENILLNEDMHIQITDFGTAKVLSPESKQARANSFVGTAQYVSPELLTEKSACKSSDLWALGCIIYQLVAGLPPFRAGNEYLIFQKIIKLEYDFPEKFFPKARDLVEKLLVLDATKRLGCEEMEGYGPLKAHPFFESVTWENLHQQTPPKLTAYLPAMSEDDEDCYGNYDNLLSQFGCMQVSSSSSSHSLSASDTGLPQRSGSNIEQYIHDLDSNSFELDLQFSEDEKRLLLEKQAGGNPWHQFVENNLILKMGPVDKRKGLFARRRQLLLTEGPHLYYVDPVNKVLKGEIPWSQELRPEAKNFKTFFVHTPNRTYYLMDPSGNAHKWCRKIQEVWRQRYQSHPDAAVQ

ΔPH-PKB-ΔC = biological target: T3, ΔPH-PKB-ΔC (Homo sapiens, UniProt P31751); assay: Isothermal titration calorimetry, peptide binding to ΔPH-PKB-ΔC
T3 construct: ΔPH-PKB-ΔC(residues 146 to 460, not phosphorylated on Thr-309); 6xHis (N, cleaved yes); made in house; host or cells: Sf9 insect cells / baculovirus (pFastBacHTa)
T3 sequence (P31751 146-460, stated change not applied): as the sequence (P31751 146-460 R202D) above, with D57R counted along it
Method: (§3) (C) Isothermal titration calorimetry measurements of the binding of PIFtide to pΔPH-PKB-ΔC (left) and ΔPH-PKB-ΔC (right). Upper panel, raw data of the titration of PIFtide into pΔPH-PKB-ΔC. Lower panel, integrated heats of injections, corrected for the heat of dilution, with the solid line corresponding to the best fit of the data using the MicroCal software.
(§4) Using isothermal titration calorimetry, the affinity between PIFtide and both pΔPH-PKB-ΔC and ΔPH-PKB-ΔC was determined (FIG. 5C). […] The observed large decrease in entropy is […] typical of protein-peptide interactions, for example SH2-domain-phosphotyrosine peptide complexes (Ladbury et al., 1996), and is consistent with an ordering of both the protein, presumably the αB- and αC-helices of the N-lobe, and peptide on complex formation.

pΔPH-PKB-ΔC = biological target: T4, pΔPH-PKB-ΔC (Homo sapiens, UniProt P31751); assay: Isothermal titration calorimetry, peptide binding to pΔPH-PKB-ΔC; details: ITC; read-out: equilibrium dissociation constant
T4 construct: pΔPH-PKB-ΔC (residues 146 to 460, phosphorylated in vitro on Thr-309); 6xHis (N, cleaved yes); made in house; host or cells: Sf9 insect cells / baculovirus (pFastBacHTa)
T4 sequence (P31751 146-460, stated change not applied): as the sequence (P31751 146-460 R202D) above, with D57R counted along it
Method: as §3, §4

[3] = biological target: T5, pΔPH-PKB-ΔC (PKBβ residues 146 to 460, phosphorylated in vitro on Thr-309) (Homo sapiens, UniProt P31751); assay: Protein kinase B assay with Crosstide as substrate, peptide stimulation of pΔPH-PKB-ΔC; type: biochemical; details: Crosstide substrate
T5 construct: pΔPH-PKB-ΔC (residues 146 to 460, phosphorylated in vitro on Thr-309); 6xHis (N, cleaved yes); made in house; host or cells: Sf9 insect cells / baculovirus (pFastBacHTa)
T5 sequence (P31751 146-460, stated change not applied): as the sequence (P31751 146-460 R202D) above, with D57R counted along it
Method: To test the model that Ser 474 phosphorylation promotes an interaction between the hydrophobic motif and the induced hydrophobic groove of the N-terminal lobe, thereby causing an allosteric activation of the kinase, the ability of peptides modelled on the hydrophobic motif of PKB to activate the enzyme via an intermolecular association with the N-terminal lobe was assessed.
(§5) PKB was assayed essentially as described by Andjelkovic et al. (1999) with 30 μM Crosstide (GRPRTSSAEG) as substrate except the protein kinase A inhibitor peptide was not added to the reactions. For peptide stimulation experiments the various peptides were dissolved in water and added to the kinase assay mix prior to adding the PKB protein. Peptides were synthesized by Franz Fischer at the FMI or purchased from Neosystem, Strasburg, France.
All experiments were performed in either duplicate or triplicate.

[4] = biological target: T6, His tagged pΔPH-PKB-ΔC L225A mutant (Homo sapiens, UniProt P31751, L225A); assay: PIFtide responsiveness of hydrophobic groove mutant Leu 225; type: biochemical; details: 130 μM PIFtide
T6 construct: pΔPH-PKB-ΔC (residues 146 to 460, phosphorylated in vitro on Thr-309); made in house; host or cells: HEK cells (transient expression), purified on Ni-NTA agarose
T6 sequence (P31751 146-460 L225A): as the sequence (P31751 146-460 R202D) above, with D57R, L80A counted along it
Method: as §1, §2, §5

PDK1 [5] = biological target: T2, PDK1; details: cited from earlier work; remark: listed apart in the source

Structure (SMILES): CC[C@H](C)[C@H](NC(=O)[C@H](Cc1ccc(O)cc1)NC(=O)[C@H](CC(=O)O)NC(=O)[C@H](Cc1ccccc1)NC(=O)[C@H](CC(=O)O)NC(=O)[C@H](CCCNC(=N)N)NC(=O)[C@H](Cc1ccccc1)NC(=O)[C@H](CCSC)NC(=O)[C@H](CCC(=O)O)NC(=O)[C@H](CCC(N)=O)NC(=O)[C@H](CCC(=O)O)NC(=O)[C@H](CCC(=O)O)NC(=O)[C@H](CCC(=O)O)NC(=O)[C@H](CO)NC(=O)[C@H](CC(C)C)NC(=O)[C@@H](NC(=O)[C@H](CCCNC(=N)N)NC(=O)[C@@H]1CCCN1C(=O)[C@H](CCC(=O)O)NC(=O)[C@@H](N)CCCNC(=N)N)[C@@H](C)CC)C(=O)N[C@@H](C)C(=O)N[C@@H](CC(=O)O)C(=O)N[C@@H](Cc1c[nH]c2ccccc12)C(=O)O [PIFtide] (H-REPRILSEEEQEMFRDFDYIADW-OH; N-terminus and C-terminus assumed)
- ability of PIFtide to activate R202D PKB (in words) ([1]; 130 μM PIFtide): almost eliminates
- responsiveness of R202D PKB (in words) ([1]; higher concentrations of the peptide): more responsive
- stimulation of PDK1 activity (PDK1 [2]): four-fold
- binding to ΔPH-PKB-ΔC (in words) (ΔPH-PKB-ΔC): can bind
- enthalpy change ΔH (ΔPH-PKB-ΔC; ITC): -16.0 kcal/mol
- entropy term TΔS (ΔPH-PKB-ΔC; ITC): -9.2 kcal/mol
- Kd (ΔPH-PKB-ΔC; ITC, read-out: dissociation constant): 5.5 µM
- Kd (pΔPH-PKB-ΔC): 6 µM
- concentration of maximum and saturable activation [3]: 20 µM
- specific activity of pΔPH-PKB-ΔC maximally activated by PIFtide [3]: 350 nmol/min/mg
- EC50 ([3]; value of PIFtide(D->A) called estimated, read-out: EC50 for activation of pΔPH-PKB-ΔC): 3 µM
- responsiveness to PIFtide (in words) [4]: almost a complete loss of responsiveness
- effect on thermal stability of PDK1 (in words) (PDK1 [5]): greatly increases
